Data as given in US12616697B2, “Methods of treatment with myosin modulator” (MyoKardia, Inc., priority 2020, dated 2026).

Tested on: subjects with symptomatic non-obstructive HCM (nHCM)
Experiment: […]-HCM Phase 2 randomized, double-blind, placebo-controlled, concentration-guided study
Type: in vivo, human
Design: Overall KCCQ Summary Score, mean change / Clinical KCCQ Summary Score, mean change / Overall KCCQ Summary Score / Clinical KCCQ Summary Score: scale not given here
Settings: for LVEF, mean change: Week 16
Description: This is a Phase 2 trial designed to assess the safety and tolerability of a range of exposures over 16 weeks of treatment in subjects with symptomatic, non-obstructive HCM. All study subjects were required to be diagnosed with non-obstructive HCM, with left ventricular wall thickness either ≥15 mm or ≥13 mm with a family history of HCM, LVEF≥55%, NYHA classifications of Class II or III, and NT-proBNP levels of greater than 300 pg/mL at rest. Baseline characteristics, such as age, weight, gender, pathogenic mutation status, background beta blocker use, NYHA classification and exercise capacity were approximately evenly distributed between active and placebo arms.
This double-blind study enrolled 59 individuals with nHCM (Left ventricular outflow tract gradient<30 mmHg; resting or provoked), NYHA Class II or III, and LVEF≥55%. Subjects were randomized 1:1:1 to one of two target plasma drug concentrations (Group 1: ˜200 ng/mL and Group 2: ˜500 ng/mL) or placebo for 16 weeks, followed by an 8-week washout. […] Predefined criteria, including LVEF (LVEF≤45%), guided study drug discontinuation if indicated. Cardiopulmonary exercise testing was performed at baseline and Week 16 to assess the impact on exercise capacity.
Dose adjustments will be based on PK parameters. Assessments include safety, standardized cardiopulmonary exercise testing (CPET) with measurement of peak oxygen consumption, echocardiography to evaluate left ventricular ejection fraction (LVEF) and parameters of diastolic function, symptoms, quality of life, daily step counts, and NT-proBNP at rest and after exercise. In addition, subjects may consent to hypertrophic cardiomyopathy genotyping and pharmacogenetic sampling.
Cardiac Troponin I levels were evaluated on plasma and serum samples of subjects at baseline and at various time points in the trial (Abbott Architect Stat Troponin-I assay (Ref. 2K41)). Cardiac Troponin T levels were evaluated on plasma and serum samples of subjects at baseline and at various time points in the trial (Roche Elecsys Troponin T hs assay) (Ref. 08469873190) performed on a cobas e 801 analyzer). NT-proBNP levels were evaluated on plasma samples using the Roche Elecsys proBNPII assay (Ref. 07027664190) on a cobas e 801 analyzer.
Subjects were randomized via an interactive response system to 3 groups in a 1:1:1 ratio: 2 active treatment groups and 1 matching placebo.
5 mg QD was used as the starting dose for the study. All subjects in the active treatment groups started on 5 mg QD. […] PK modeling was used to guide blinded dose adjustment at the Week 6 visit, based on the plasma concentrations collected at Week 4. Subjects in the placebo group underwent the same assessments in order to preserve the blind. […] Subjects were instructed to take the drug under fasting conditions, at approximately the same time each day, and with 8 ounces of water.
To achieve the target concentration, if a subject's Week 4 concentration was >450 ng/mL, the subject's dose was decreased to 2.5 mg QD; if Week 4 concentration was 110-450 ng/mL, the dose was maintained at 5 mg QD; and if Week 4 concentration was <110 ng/mL, the dose was increased to 10 mg QD.
Subjects were monitored for adverse events (AE), including high blood plasma concentration, systolic dysfunction, QT prolongation, and LVEF decrease. If any of the following thresholds were hit PK 1000 or more, QTcF 500, or LVEF 45%, the subjects were discontinued on drug. Specifically, high blood plasma concentration was defined as blood plasma concentration greater than or equal to 1000 ng/mL; QT prolongation was defined as QTcF greater than or equal to 500 ms; and LVEF shortening was defined as LVEF less than or equal to 45% (including serious adverse event (SAE) for LVEF less than or equal to 30%).
Efficacy and pharmacodynamics assessments were also made. Resting transthoracic echocardiography measurements were taken at Weeks 4, 8, 12 and 16. […]

[1] = Elevated Troponin subgroup, Mean Difference vs placebo
[2] = Elevated Troponin subgroup, mean change from baseline
[3] = Subgroup with Elevated E/e′ at Baseline, Difference mavacamten vs placebo
[4] = Subgroup with Elevated E/e′ at Baseline, pooled, mean change from baseline

For CC(C)n1c(=O)cc(N[C@@H](C)c2ccccc2)[nH]c1=O [mavacamten, (S)-3-Isopropyl-6-((1-phenylethyl)amino)pyrimidine-2, 4(1H,3H)-dione], the “Composite Functional Endpoint: Met endpoint, either type, %” value (from here on “Composite Functional Endpoint … %”) (Combined Subgroup (elevated cTnI or E/e′ average >14), Pooled) was 33%, the “Composite Functional Endpoint … %” value (Combined Subgroup, Group 1 ~200 ng/mL) was “(33.3) %” and the “Composite Functional Endpoint … %” value (Combined Subgroup, Group 2 ~500 ng/mL) was “(33.3) %”. The “Clinical KCCQ Summary Score” value [1] was 8.8, the “NYHA Class” value [1] was −0.3 and the “Peak VO2” value [1] was 2.70 mL/min/kg. The “Serum Troponin I (cTnI)” value [1] was -0.083 ng/mL, the “Clinical KCCQ Summary Score” value [2] was 6.9 and the “NYHA Class” value [2] was −0.5. The “Overall KCCQ Summary Score” value [2] was 6.4, the “Serum Troponin I (cTnI)” value [2] was -0.12 ng/mL and the “Clinical KCCQ Summary Score, mean change” value (ITT, Group 1 ~200 ng/mL) was 0.11. For the same molecule, the “Lateral e′, mean change” value (ITT, Group 1 ~200 ng/mL) was 0.34 cm/s, the “NYHA Class, mean change” value (ITT, Group 1 ~200 ng/mL) was −0.6 and the “Overall KCCQ Summary Score, mean change” value (ITT, Group 1 ~200 ng/mL) was 0.35. The “Peak VO2, mean change” value (ITT, Group 1 ~200 ng/mL) was 0.36 mL/min/kg, the “Septal e′, mean change” value (ITT, Group 1 ~200 ng/mL) was 0.64 cm/s and the “LVEF, mean change” value (ITT, Group 1 ~200 ng/mL) was −2.30%. The “LVEDV, mean change” value (ITT, Group 2 ~500 ng/mL) was 6.50 mL, the “NYHA Class, mean change” value (ITT, Group 2 ~500 ng/mL) was −0.3 and the “Peak VO2, mean change” value (ITT, Group 2 ~500 ng/mL) was 0.12 mL/min/kg. For the same molecule, the “Septal e′, mean change” value (ITT, Group 2 ~500 ng/mL) was 1.60 cm/s, the “Lateral e′, mean change” value (ITT, Pooled) was 0.94 cm/s and the “NYHA Class, mean change” value (ITT, Pooled) was −0.4. For the same molecule, the “Peak VO2, mean change” value (ITT, Pooled) was 0.22 mL/min/kg, the “LVEF, mean change” value (ITT, Pooled) was −4.1% and the “Clinical KCCQ Summary Score” value [3] was 4.1. For the same molecule, the LVEDVi [3] was 3.9 mL/m^2, the “NYHA Class” value [3] was 0.0 and the “Overall KCCQ Summary Score” value [3] was 0.4. For the same molecule, the “Peak VO2” value [3] was 1.9 mL/min/kg, the cTnI [3] was -0.07 ng/mL and the “Clinical KCCQ Summary Score” value [4] was 4.6. For the same molecule, the LVEDVi [4] was 2.8 mL/m^2, the “NYHA Class” value [4] was −0.4 and the “Overall KCCQ Summary Score” value [4] was 4.7. The “Peak VO2” value [4] was 1.2 mL/min/kg, the cTnI [4] was -0.09 ng/mL and the “Serious adverse events (SAEs), subjects” value (subjects receiving mavacamten, placebo 21%) was 10%. For the same molecule, the “participants with a decrease in LVEF to ≤45%, %” value (weeks 11-12, active treatment) was 12.5%.
